# Assay results published in PubChem BioAssay (NCI).
#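 Grown in 96-well plates, cells were treated for 48 hours with each compound at five concentrations. Insufficient inhibition: endpoint recorded as highest concentration tested. GI50: concentration for 50% inhibition of growth. At the TGI there is no net growth.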
# Legend:
# Experiment in all cases: NCI-60 cell line screen, 48 h
# HOP-92 NSCLC = test system: HOP-92 NSCLC
# A498 renal = test system: A498 renal
# EKVX NSCLC = test system: EKVX NSCLC
# K-562 leukemia = test system: K-562 leukemia
# OVCAR-5 ovarian = test system: OVCAR-5 ovarian
# HCT-15 colon = test system: HCT-15 colon
# OVCAR-4 ovarian = test system: OVCAR-4 ovarian
# SF-268 CNS = test system: SF-268 CNS
# NCI/ADR-RES ovarian = test system: NCI/ADR-RES ovarian
# NCI-H522 lung = test system: NCI-H522 lung
# UACC-257 melanoma = test system: UACC-257 melanoma
# HOP-62 NSCLC = test system: HOP-62 NSCLC
# RPMI-8226 leukemia = test system: RPMI-8226 leukemia
# KM12 colon = test system: KM12 colon
# HT29 colon = test system: HT29 colon
# MDA-MB-435 = test system: MDA-MB-435
# MDA-MB-231 breast = test system: MDA-MB-231 breast
# SK-MEL-28 melanoma = test system: SK-MEL-28 melanoma
# MALME-3M melanoma = test system: MALME-3M melanoma
# A549 NSCLC = test system: A549 NSCLC
# LOX IMVI melanoma = test system: LOX IMVI melanoma
# TK-10 renal = test system: TK-10 renal
# OVCAR-8 ovarian = test system: OVCAR-8 ovarian
# U251 CNS = test system: U251 CNS
# T-47D breast = test system: T-47D breast
# PC-3 prostate = test system: PC-3 prostate
# SN12C renal = test system: SN12C renal
# SF-539 CNS = test system: SF-539 CNS
# SK-MEL-5 melanoma = test system: SK-MEL-5 melanoma
smiles,measurement,setting,value
O=C1CCC(N2Cc3c(C#CCCCNC(=O)c4ccc(NC(=O)[C@@H]5NC6(CCCCC6)[C@@]6(C(=O)Nc7cc(Cl)ccc76)[C@H]5c5cccc(Cl)c5F)cc4)cccc3C2=O)C(=O)N1 (stereo partly drawn),GI50,HOP-92 NSCLC,5.27 µM
same,TGI,HOP-92 NSCLC,> 100 µM
same,GI50,A498 renal,25.7 µM
same,TGI,A498 renal,> 100 µM
same,GI50,EKVX NSCLC,8.32 µM
same,TGI,EKVX NSCLC,> 100 µM
same,GI50,K-562 leukemia,65 µM
same,TGI,K-562 leukemia,> 100 µM
same,GI50,OVCAR-5 ovarian,> 53.2 µM
same,TGI,OVCAR-5 ovarian,> 100 µM
same,GI50,HCT-15 colon,7.72 µM
same,TGI,HCT-15 colon,> 100 µM
same,GI50,OVCAR-4 ovarian,7.28 µM
same,TGI,OVCAR-4 ovarian,97.5 µM
same,GI50,SF-268 CNS,26 µM
same,TGI,SF-268 CNS,> 100 µM
same,GI50,NCI/ADR-RES ovarian,> 100 µM
same,TGI,NCI/ADR-RES ovarian,> 100 µM
same,GI50,NCI-H522 lung,> 89.9 µM
same,TGI,NCI-H522 lung,> 100 µM
same,GI50,UACC-257 melanoma,9.03 µM
same,TGI,UACC-257 melanoma,> 100 µM
same,GI50,HOP-62 NSCLC,> 100 µM
same,TGI,HOP-62 NSCLC,> 100 µM
same,GI50,RPMI-8226 leukemia,4.16 µM
same,TGI,RPMI-8226 leukemia,> 100 µM
same,GI50,KM12 colon,9.18 µM
same,TGI,KM12 colon,> 100 µM
same,GI50,HT29 colon,25.2 µM
same,TGI,HT29 colon,> 100 µM
same,GI50,MDA-MB-435,31.8 µM
same,TGI,MDA-MB-435,> 100 µM
same,GI50,MDA-MB-231 breast,15.4 µM
same,TGI,MDA-MB-231 breast,> 100 µM
same,GI50,SK-MEL-28 melanoma,96.8 µM
same,TGI,SK-MEL-28 melanoma,> 100 µM
same,GI50,MALME-3M melanoma,0.159 µM
same,TGI,MALME-3M melanoma,20 µM
same,GI50,A549 NSCLC,1.04 µM
same,TGI,A549 NSCLC,> 100 µM
same,GI50,LOX IMVI melanoma,0.953 µM
same,TGI,LOX IMVI melanoma,> 100 µM
same,GI50,TK-10 renal,> 75.9 µM
same,TGI,TK-10 renal,> 100 µM
same,GI50,OVCAR-8 ovarian,> 100 µM
same,TGI,OVCAR-8 ovarian,> 100 µM
same,GI50,U251 CNS,9.5 µM
same,TGI,U251 CNS,> 100 µM
same,GI50,T-47D breast,6.68 µM
same,TGI,T-47D breast,> 100 µM
same,GI50,PC-3 prostate,7.52 µM
same,TGI,PC-3 prostate,> 100 µM
same,GI50,SN12C renal,> 78.2 µM
same,TGI,SN12C renal,> 100 µM
same,GI50,SF-539 CNS,12.9 µM
same,TGI,SF-539 CNS,> 100 µM
same,GI50,SK-MEL-5 melanoma,2.33 µM
same,TGI,SK-MEL-5 melanoma,> 40.2 µM
